{
  "source": "patent US9120728B2",
  "about": "“Modulators of cortical dopaminergic- and NMDA-receptor-mediated glutamatergic neurotransmission” (INTEGRATIVE RESEARCH LABORATORIES SWEDEN AB, priority 2011, dated 2015)",
  "key": {"[1]": {"system": "d-amphetamine pre-treated rats", "experiment": "Reduction of amphetamine-induced hyper-locomotion", "assay_type": "in vivo", "settings": "Rattus norvegicus; rats pre-treated with d-amphetamine 1.5 mg/kg i.p.; test compound 0-100 μmol/kg s.c.; distance during last 45 minutes of one hour", "description": "The increase in activity after treatment with d-amphetamine is a standard model of hyperdopaminergia. In this model, dopaminergic neurotransmission is increased by systemic administration of d-amphetamine at a dose that is sufficiently high to produce a large increase in locomotor activity. The ability of a compound to antagonize this hyperactivity reflects anti-dopaminergic properties. Furthermore, antagonism of d-amphetamine induced hyperactivity is widely used as a standard assay of antipsychotic activity (see Psychopharmacology 4th Generation of progress Chapter 68, p 793-795).\nBehavioural activity is measured using eight Digiscan activity monitors (RXYZM (16) TAO, Omnitech Electronics, Columbus, Ohio, USA), connected to an Omnitech Digiscan analyzer and an Apple Macintosh computer equipped with a digital interface board (NB DIO-24, National Instruments, USA). […]\nBehavioural data from each activity monitor, representing the position (horizontal center of gravity and vertical activity) of the animal at each time, are recorded at a sampling frequency of 25 Hz and collected using a custom written LABView™ application. The data from each recording session are stored and analyzed with respect to distance traveled. […]\nED50 value for reduction of amphetamine-induced hyper-locomotion is calculated by curve fitting. […]"}, "drug-naive rats": {"system": "drug-naive rats", "experiment": "Effects on spontaneous locomotion (locomotor activity in drug-naive rats)", "assay_type": "in vivo, rat", "settings": "recorded for 60 minutes immediately after drug administration", "method": "Prior art dopamine receptor antagonists are known to induce profound decrease in locomotor activity (catalepsy).\nBehavioural activity is measured using eight Digiscan activity monitors (RXYZM (16) TAO, Omnitech Electronics, Columbus, Ohio, USA), connected to an Omnitech Digiscan analyzer and an Apple Macintosh computer equipped with a digital interface board (NB DIO-24, National Instruments, USA). Each activity monitor consists of a quadratic metal frame (W×L=40 cm×40 cm) equipped with photobeam sensors. During measurements of behavioural activity, a rat is put in a transparent acrylic cage (WxLxH, 40×40×30 cm) which in turn is placed in the activity monitor. Each activity monitor is equipped with three rows of infrared photobeam sensors, each row consisting of 16 sensors. Two rows are placed along the front and the side of the floor of the cage, at a 90° angle, and the third row is placed 10 cm above the floor to measure vertical activity. Photobeam sensors are spaced 2.5 cm apart. Each activity monitor is fitted in an identical sound and light attenuating box containing a weak house light and a fan.\nThe computer software is written using object oriented programming (LabVIEW®, National instruments, Austin, Tex., USA).\nBehavioural data from each activity monitor, representing the position (horizontal center of gravity and vertical activity) of the animal at each time, are recorded at a sampling frequency of 25 Hz and collected using a custom written LABView™ application. The data from each recording session are stored and analyzed with respect to distance traveled. Each behavioural recording session lasts 60 min, starting approximately 4 min after the injection of test compound. Similar behavioural recording procedures are applied for drug-naïve and drug pre-treated rats. Rats pre-treated with d-amphetamine are given a dose of 1.5 mg/kg i.p. 10 min before the recording session in the activity monitor. Rats pre-treated with MK-801 are given a dose of 0.7 mg/kg i.p. 90 min before the recording session in the activity monitor. The results are presented as counts/60 minutes, or counts/30 minutes, in arbitrary length units. Statistical comparisons are carried out using Student's t-test against the control group. In MK-801 or amphetamine pre-treated animals, statistical comparisons are made against the MK801 or d-amphetamine controls, respectively."}, "[2]": {"system": "DOPAC (3,4-dihydroxyphenylacetic acid) in the rat striatum", "experiment": "Increase of DOPAC (3,4-dihydroxyphenylacetic acid) in the rat striatum after systemic administration", "assay_type": "in vivo", "settings": "sc, estimated ED50 on increase of DOPAC in rat striatum, dose range 0-100 μmol/kg s.c., curve fitting", "description": "The increased turnover of dopamine in the terminal areas of the ascending dopaminergic projections of the mammalian brain can be illustrated by measuring of changes in biochemical indices in the brain with the characteristic features of dopamine antagonists, e.g. producing increases in concentrations of dopamine metabolites such as 3,4-dihydroxyphenyl-acetic acid (DOPAC) in the striatum.\nAfter the behavioural activity sessions, the rats are decapitated and their brains rapidly taken out and put on an ice-cold petri-dish. The limbic forebrain, the striatum, the frontal cortex and the remaining hemispheral parts of each rat are dissected and frozen. Each brain part is subsequently analyzed with respect to its content of monoamines and their metabolites.\nThe monoamine transmitter substances (NA (noradrenaline), DA (dopamine), 5-HT (serotonin)) as well as their amine (NM (normethanephrine), 3-MT (3-methoxytyramine)) and acid (DOPAC (3,4-dihydroxyphenylacetic acid), 5-HIAA (5-hydroxyindoleacetic acid), HVA (homovanillic acid)) metabolites are quantified in brain tissue homogenates by HPLC separations and electrochemical detection\nThe analytical method is based on two chromatographic separations dedicated for amines or acids. Two chromatographic systems share a common auto injector with a 10-port valve and two sample loops for simultaneous injection on the two systems. Both systems are equipped with a reverse phase column (Luna C18(2), dp 3 μm, 50×2 mm i.d., Phenomenex) and electrochemical detection is accomplished at two potentials on glassy carbon electrodes (MF-1000, Bioanalytical Systems, Inc.). The column effluent is passed via a T-connection to the detection cell or to a waste outlet. This is accomplished by two solenoid valves, which block either the waste or detector outlet. By preventing the chromatographic front from reaching the detector, better detection conditions are achieved. The aqueous mobile phase (0.4 ml/min) for the acid system contains citric acid 14 mM, sodium citrate 10 mM, MeOH 15% (v/v) and EDTA 0.1 mM. Detection potentials relative to Ag/AgCl reference are 0.45 and 0.60V. […] Detection potentials relative to Ag/AgCl reference are 0.45 and 0.65V.\nED50 value for the increase of DOPAC in striatum is calculated by curve fitting. The evaluation is based on 40 animals over the dose range 0, 3.7, 11, 33 and 100 μmol/kg s.c. in two combined experiments. The DOPAC levels are normalised to control and fitted by least square minimization to the function “End-(End-Control)/(1+(dose/ED50)^slope)”. The four parameters (Control, End, ED50 and Slope) are fitted with the restrictions: ED50>0, 0.5<Slope<3, 350<End<400% of control. To estimate confidence levels for the parameters, the fit is repeated 100 times with a random evenly distributed squared weight (0 to 1) for every measurement value. Presented ED50-ranges cover 95% of these values."}},
  "data": [
    {"smiles": "CCCNCCOc1cc(F)cc(S(C)(=O)=O)c1", "note": "[Example 1, N-[2-(3-fluoro-5-methylsulfonyl-phenoxy)ethyl]propan-1-amine]", "values": [
      {"measurement": "ED50", "setting": "[1]", "value": 24, "unit": "µmol/kg"},
      {"measurement": "Locomotor activity", "setting": "drug-naive rats; 3.7 μmol/kg", "value": 8049, "unit": "counts/60 min"},
      {"measurement": "Locomotor activity", "setting": "drug-naive rats; 11 μmol/kg", "value": 7325, "unit": "counts/60 min"},
      {"measurement": "Locomotor activity", "setting": "drug-naive rats; 33 μmol/kg", "value": 6025, "unit": "counts/60 min"},
      {"measurement": "ED50", "setting": "[2]", "value": 8.5, "unit": "µmol/kg"}
    ]}
  ]
}
